In paper PMC12670427, “FDA Drug Repurposing Uncovers Modulators of Dopamine D2 Receptor Localization via Disruption of the NCS‑1 Interaction” (Journal of Medicinal Chemistry, 2025):
“And” between values parts separate entries of the source, which are not always exact repeats. Equal values may be shown once. Where a name gives a salt, the structure may show the parent alone.

Assays:
NCS-1ΔH10 = biological target: T1, NCS-1ΔH10 (Homo sapiens, UniProt P62166); experiment: Intrinsic emission fluorescence binding to NCS-1ΔH10; details: NCS-1ΔH10, intrinsic emission fluorescence; read-out: apparent binding affinity for H10-truncated NCS-1
T1 construct: NCS-1 construct lacking helix H10; made in house
T1 sequence (P62166 1-177 limits assumed, stated change not applied): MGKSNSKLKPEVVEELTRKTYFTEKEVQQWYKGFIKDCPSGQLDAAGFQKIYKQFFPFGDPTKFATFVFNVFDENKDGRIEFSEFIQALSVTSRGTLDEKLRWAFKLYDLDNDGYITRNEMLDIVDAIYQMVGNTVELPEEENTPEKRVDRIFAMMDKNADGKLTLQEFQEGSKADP
Procedure: To determine the affinity of the FDA-approved drugs for full-length NCS-1 or NCS-1ΔH10, we used fluorescence techniques, since the presence of tryptophan (Trp) and tyrosine (Tyr) residues in NCS-1 sequence confers the protein intrinsic emission fluorescence when excited at 295 nm. Fluorescence intensity was monitored at 330 nm and 35 °C with a nano-DSF machine (nanoTemper). Protein concentration was set to 5 μM in a buffer containing Tris 50 mM pH 8.0, NaCl 125 mM, CaCl2 5 μM, 5% DMSO. Ligand concentration was increased up to 150 μM. Three independent experiments were performed for each protein:ligand ratio. […] In fact, compound FDA-02, 09, 11, 15, 21, and 22 were measured using SPR due to their high intrinsic emission at 330 nm. The apparent dissociation constant, K d, was obtained by using a least-squares algorithm to fit the recorded data to the equation previously described. Apparent K d values are reported as mean ± SD. ,
Prior crystallization, the contribution of the helix H10 to ligand binding was assessed in case this information could guide construct selection for structural studies. […] Given the initial high affinity of AZS for full-length NCS-1, the affinity for the H10-truncated construct was not measured. Initial crystallization screenings yielded to crystals of ATV in complex with full-length NCS-1. […]

full-length NCS-1 [1] = biological target: T2, full-length NCS-1 (Homo sapiens, UniProt P62166); experiment: Tryptophan intrinsic emission fluorescence binding to full-length NCS-1; details: full-length NCS-1 5 μM, Trp emission at 330 nm, 35 °C, apparent Kd mean ± SD
T2 construct: For biophysical and crystallographic assays, full-length human NCS-1; made in house
T2 sequence (P62166 whole entry): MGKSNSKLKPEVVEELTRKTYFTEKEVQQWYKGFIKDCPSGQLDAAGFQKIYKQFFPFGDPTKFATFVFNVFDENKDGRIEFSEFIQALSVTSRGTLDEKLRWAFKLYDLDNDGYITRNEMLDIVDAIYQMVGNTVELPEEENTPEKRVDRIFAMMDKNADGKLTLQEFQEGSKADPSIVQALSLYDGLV
Procedure: To experimentally assess the binding of the FDA-approved drug library to NCS-1 we used tryptophan emission fluorescence. ,, Fluorescence intensity changes were measured at 330 nm in full-length NCS-1 upon increasing concentrations of the selected compounds (Figure A).

[2] = known drug property listed in Supplementary Table 1, no reference given; cited from earlier work
[3] = tested on: D2R subcellular localization in HEK293 cells; experiment: Sequential immunostaining for D2R localization (membrane vs cytoplasm); format: cell-based, human; details: for effect of trafficking tool compounds on NCS-1-induced D2R membrane localization: HEK293 cells, NCS-1 overexpression
Procedure: HEK293 cells were seeded on poly-D-lysine-coated glass coverslips in 24-well plates. Following transfection and drug treatments, cells were fixed with 2% paraformaldehyde (PFA) for 10 min and with 4% PFA for an additional 10 min at room temperature. Coverslips with fixed cells were then blocked in PBS containing 10% normal goat serum (NGS) for 30 min at room temperature.
After three PBS washes, fluorescence was fixed with 10% formaldehyde for 3 min. The second round started with a blocking step using PBS containing 10% NGS and 0.03% Triton X-100 for 1 h at room temperature. […] Coverslips were washed with PBS and mounted using ProLong Gold Antifade (Thermo Fisher Scientific) with Hoechst for nuclear counterstaining. Confocal images were acquired using either a Leica SP5 or a Nikon ECLIPSE Ti microscope, depending on the experiment. […] Individual confocal images were processed by setting intensity thresholds for the green (cytoplasmic) and red (membrane) channels. Fluorescence intensity was then measured separately for each channel, and the relative proportion of green to red signal was calculated for each image.

NCS-1/D2R interaction = biological target: T3, NCS-1/D2R interaction (Homo sapiens, UniProt P62166); experiment: Proximity ligation assay (PLA) with flow cytometry; format: cell-based; details: HEK293 cells, 5 μM, 16 h; vehicle set to 100%; mean ± SD
T3 construct: expressed in transfected cells; host or cells: HEK293
T3 sequence (P62166 2-190 limits assumed): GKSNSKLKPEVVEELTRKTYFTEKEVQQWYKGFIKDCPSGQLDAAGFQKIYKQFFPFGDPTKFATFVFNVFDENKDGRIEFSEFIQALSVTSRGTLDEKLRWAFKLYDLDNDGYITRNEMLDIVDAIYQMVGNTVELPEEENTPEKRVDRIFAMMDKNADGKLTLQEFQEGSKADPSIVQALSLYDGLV

full-length NCS-1 [4] = biological target: T2, full-length NCS-1; experiment: Surface plasmon resonance over CM4-immobilized NCS-1; format: binding; details: SPR, NCS-1 immobilized on CM4 chip, 25 °C; used for compounds that emit at 330 nm; read-out: NCS-1/FDA Affinity, Kd
Excerpt: In these experiments, full-length NCS-1 was cross-linked to the surface of the biosensor, through its lysine amino acids, since these residues are concentrated on the upper surface and opposite to the hydrophobic crevice. This arrangement ensured that the hydrophobic crevice remained exposed to the solvent.
NCS-1 was immobilized on a CM4 sensor chip (Biacore, GE) following a standard amine coupling method. The carboxymethyl dextran surface of the flow cell 2 was activated by injecting a 1:1 mixture of 0.4 M EDC and 0.1 M NHS for 7 min. The protein was then covalently coupled to the surface via a 7 min injection at several dilutions, with a final concentration of 100 μg/mL in 10 mM sodium acetate, pH 4.0. Unreacted N-hydroxysuccinimide esters were quenched by a 7 min injection of 0.1 M ethanolamine-HCl pH 8.0, achieving an immobilization level of 5000 RUs. Flow cell 1, subjected to the same amine coupling procedure but without protein, served as a reference (Supplementary Figure 3A). Prior to use, 10 mM stock solutions of FDA-approved drugs were serially diluted to final concentration of 100 μM in running buffer. […] After dissociation, an additional wash step was performed using a 50% DMSO solution. Regeneration was not required.
(§1) Sensorgrams data were double-referenced and solvent-corrected using the BiaEvaluation X-100 software (Biacore, GE).

[5] = Solubility under the binding assay conditions; format: physicochemical; details: SPR running buffer; precipitated on the sensor chip
Excerpt: as §1

[6] = read-out: NCS-1/FDA Affinity, Kd

Compound: CC(C)c1c(C(=O)Nc2ccccc2)c(-c2ccccc2)c(-c2ccc(F)cc2)n1CC[C@@H](O)C[C@@H](O)CC(=O)O [Atorvastatin]
- Kd (NCS-1ΔH10): 17 µM
- Kd (full-length NCS-1 [1]; [6]): 53 µM and 53.1 µM

Compound: CCOc1nc2cccc(C(=O)OCc3oc(=O)oc3C)c2n1Cc1ccc(-c2ccccc2-c2noc(=O)[nH]2)cc1 [Azilsartan medoxomil]
- Crossing the blood-brain barrier [2]: Low penetrance

Compound: C[C@H]1CCC/C=C/[C@@H]2C[C@H](O)C[C@H]2[C@H](O)/C=C/C(=O)O1 [BFA, Brefeldin A]
- effect of trafficking tool compounds on NCS-1-induced D2R membrane localization [3]: prevented the NCS-1-induced increase in membrane D2R

Compound: CCN(CC)CCCC(C)Nc1ccnc2cc(Cl)ccc12 (centres unmarked) [Chloroquine]
- Kd (full-length NCS-1 [1]; [6]): 200 ± 35 µM
- Crossing the blood-brain barrier [2]: Yes

Compound: CCN(CC)CCOc1ccc(C(=C(Cl)c2ccccc2)c2ccccc2)cc1 [Clomiphene citrate]
- Crossing the blood-brain barrier [2]: No

Compound: CCCCCCOC(=O)NC(=N)c1ccc(NCc2nc3cc(C(=O)N(CCC(=O)OCC)c4ccccn4)ccc3n2C)cc1 [Dabigatran etexilate]
- Kd (full-length NCS-1 [1]; [6]): 13.2 ± 2.5 µM
- Crossing the blood-brain barrier [2]: No

Compound: COC(=O)N[C@H](C(=O)N1CCC[C@H]1c1nc(-c2ccc(-c3ccc(-c4c[nH]c([C@@H]5CCCN5C(=O)[C@@H](NC(=O)OC)C(C)C)n4)cc3)cc2)c[nH]1)C(C)C [Daclatasvir]
- Kd (full-length NCS-1 [1]; [6]): 7.2 ± 0.1 µM
- Crossing the blood-brain barrier [2]: No
- PPI modulation (PLA): NCS-1/D2R binding relative to vehicle-treated controls (NCS-1/D2R interaction): 114.6 ± 17.4%

Compound: CC(C)CN(C[C@@H](O)[C@H](Cc1ccccc1)NC(=O)O[C@H]1CO[C@H]2OCC[C@H]21)S(=O)(=O)c1ccc(N)cc1 [Darunavir]
- Crossing the blood-brain barrier [2]: No

Compound: O=C(N/N=C/c1ccc(O)c(O)c1)c1cc2ccccc2cc1O [Dynasore]
- effect of trafficking tool compounds on NCS-1-induced D2R membrane localization [3]: did not significantly affect

Compound: CN1C[C@H](C(=O)N[C@]2(C)O[C@@]3(O)[C@@H]4CCCN4C(=O)[C@H](Cc4ccccc4)N3C2=O)C=C2c3cccc4[nH]cc(c34)C[C@H]21 [Ergotamine]
- Kd (full-length NCS-1 [1]; NCS-1/FDA Affinity, Kd): 122 ± 18 µM
- Crossing the blood-brain barrier [2]: No

Compound: C[C@]12CC[C@@H]3c4ccc(O)cc4C[C@@H](CCCCCCCCC[S+]([O-])CCCC(F)(F)C(F)(F)F)[C@H]3[C@@H]1CC[C@@H]2O (some centres unmarked) [Faslodex]
- Crossing the blood-brain barrier [2]: No

Compound: CCN(CCO)CCCC(C)Nc1ccnc2cc(Cl)ccc12 (centres unmarked) [Hydroxychloroquine sulfate]
- Kd (full-length NCS-1 [1]; [6]): 353 ± 138 µM
- Crossing the blood-brain barrier [2]: Yes

Compound: CCCCCCCN(CC)CCCC(O)c1ccc(NS(C)(=O)=O)cc1 (centres unmarked) [Ibutilide fumarate]
- NCS-1/FDA Affinity, Kd (full-length NCS-1 [1]): No affinity
- Crossing the blood-brain barrier [2]: No

Compound: Cc1ccc(NC(=O)c2ccc(CN3CCN(C)CC3)cc2)cc1Nc1nccc(-c2cccnc2)n1 [Imatinib]
- Crossing the blood-brain barrier [2]: Yes

Compound: CS(=O)(=O)CCNCc1ccc(-c2ccc3ncnc(Nc4ccc(OCc5cccc(F)c5)c(Cl)c4)c3c2)o1 [Lapatinib]
- Crossing the blood-brain barrier [2]: No

Compound: Cc1c(O)cccc1C(=O)N[C@@H](CSc1ccccc1)[C@H](O)CN1C[C@H]2CCCC[C@H]2C[C@H]1C(=O)NC(C)(C)C [Nelfinavir]
- Kd (full-length NCS-1 [1]; [6]): 47.6 ± 4.1 µM
- Crossing the blood-brain barrier [2]: No
- PPI modulation (PLA): NCS-1/D2R binding relative to vehicle-treated controls (NCS-1/D2R interaction): 112.0 ± 12.7%

Compound: CNCCCC1c2ccccc2C=Cc2ccccc21 [Protriptyline hydrochloride]
- Crossing the blood-brain barrier [2]: Yes

Compound: CCCN(CCC)CCc1cccc2c1CC(=O)N2 [Ropinirole]
- effect of trafficking tool compounds on NCS-1-induced D2R membrane localization [3]: reversed this effect

Compound: OCc1cc(C(O)CNCCCCCCOCCCCc2ccccc2)ccc1O (centres unmarked) [Salmeterol]
- Kd (full-length NCS-1 [4]): 68.2 ± 17.9 µM
- Crossing the blood-brain barrier [2]: Yes
- PPI modulation (PLA): NCS-1/D2R binding relative to vehicle-treated controls (NCS-1/D2R interaction): 96.5 ± 17.2%

Compound: CCN(CC)CCNC(=O)c1c(C)[nH]c(/C=C2\C(=O)Nc3ccc(F)cc32)c1C [Sunitinib]
- Crossing the blood-brain barrier [2]: No

Compound: N#Cc1ccc2[nH]cc(CCCCN3CCN(c4ccc5oc(C(N)=O)cc5c4)CC3)c2c1 [Vilazodone]
- Kd (NCS-1ΔH10): 8 µM
- Kd (full-length NCS-1 [1]; [6]): 34 µM and 34.4 µM
- Crossing the blood-brain barrier [2]: Yes
- effect on D2R localization in the absence of NCS-1 overexpression ([3]; HEK293 cells transfected with D2R alone): affected D2R localization

Compound: O=C1Cc2cc(CCN3CCN(c4nsc5ccccc45)CC3)c(Cl)cc2N1 [ziprasidone]
- solubility under the experimental conditions [5]: low solubility

Compound: Capreomycin sulfate
- effect on NCS-1-induced D2R membrane localization ([3]; HEK293 cells cotransfected with D2R and NCS-1, 5 μM, 2 h): modest effect
